Source: ChEMBL document CHEMBL5579839, “Discovery of new cyclopropane sulfonamide derivatives as EGFR inhibitors to overcome C797S-mediated resistance and EGFR double mutation” (Eur J Med Chem, 2024)

Legend:
[1] = tested on: BaF3; assay: Antiproliferative activity against mouse BaF3 cells harboring EGFR C797S/Del19/T790M mutant; assay type: functional, cell-based
[2] = tested on: BaF3; assay: Antiproliferative activity against mouse BaF3 cells harboring EGFR C797S/L858R/T790M mutant; assay type: functional, cell-based
[3] = molecular target: Epidermal growth factor receptor (Homo sapiens, UniProt P00533, C797S/L858R/T790M); assay: Inhibition of EGFR C797S/T790M/L858R mutant (unknown origin)
Epidermal growth factor receptor (Homo sapiens, UniProt P00533, C797S/L858R/T790M), sequence (P00533 25-1210 T790M/C797S/L858R limits assumed): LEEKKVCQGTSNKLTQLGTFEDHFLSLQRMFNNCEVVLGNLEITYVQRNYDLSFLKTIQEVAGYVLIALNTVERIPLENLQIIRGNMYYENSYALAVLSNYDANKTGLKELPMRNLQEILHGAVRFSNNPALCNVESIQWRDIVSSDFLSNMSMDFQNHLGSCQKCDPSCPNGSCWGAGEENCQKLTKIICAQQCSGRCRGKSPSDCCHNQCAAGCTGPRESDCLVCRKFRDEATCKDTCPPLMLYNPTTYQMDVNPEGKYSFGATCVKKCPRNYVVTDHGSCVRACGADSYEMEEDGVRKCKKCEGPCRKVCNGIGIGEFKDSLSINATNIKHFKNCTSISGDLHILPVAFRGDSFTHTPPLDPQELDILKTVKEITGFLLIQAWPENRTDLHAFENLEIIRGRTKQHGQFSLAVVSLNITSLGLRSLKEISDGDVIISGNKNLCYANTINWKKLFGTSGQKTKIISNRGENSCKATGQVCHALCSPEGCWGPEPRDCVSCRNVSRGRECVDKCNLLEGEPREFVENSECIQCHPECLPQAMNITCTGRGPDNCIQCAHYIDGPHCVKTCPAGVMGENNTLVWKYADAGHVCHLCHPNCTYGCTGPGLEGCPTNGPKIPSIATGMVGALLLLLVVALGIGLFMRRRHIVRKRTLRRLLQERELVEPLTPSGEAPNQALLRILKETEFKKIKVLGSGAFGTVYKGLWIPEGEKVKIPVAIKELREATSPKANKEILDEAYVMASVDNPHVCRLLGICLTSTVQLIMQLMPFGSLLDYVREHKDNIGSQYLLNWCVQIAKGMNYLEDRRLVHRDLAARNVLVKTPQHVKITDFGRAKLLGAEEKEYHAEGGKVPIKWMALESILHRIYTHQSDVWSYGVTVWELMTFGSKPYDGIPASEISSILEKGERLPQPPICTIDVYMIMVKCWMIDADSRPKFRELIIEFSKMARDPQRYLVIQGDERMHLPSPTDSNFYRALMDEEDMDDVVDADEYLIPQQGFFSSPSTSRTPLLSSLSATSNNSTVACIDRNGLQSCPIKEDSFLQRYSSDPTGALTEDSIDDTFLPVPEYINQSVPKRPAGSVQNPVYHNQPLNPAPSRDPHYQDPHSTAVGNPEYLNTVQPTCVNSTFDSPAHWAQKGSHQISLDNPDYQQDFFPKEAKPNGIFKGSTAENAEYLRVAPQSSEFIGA

[4] = molecular target: Epidermal growth factor receptor (Homo sapiens, UniProt P00533, C797S/EX19DEL/T790M); assay: Inhibition of EGFR C797S/T790M/Del19 mutant (unknown origin)
Epidermal growth factor receptor (Homo sapiens, UniProt P00533, C797S/EX19DEL/T790M), sequence (P00533 whole entry, looked up, stated change not applied): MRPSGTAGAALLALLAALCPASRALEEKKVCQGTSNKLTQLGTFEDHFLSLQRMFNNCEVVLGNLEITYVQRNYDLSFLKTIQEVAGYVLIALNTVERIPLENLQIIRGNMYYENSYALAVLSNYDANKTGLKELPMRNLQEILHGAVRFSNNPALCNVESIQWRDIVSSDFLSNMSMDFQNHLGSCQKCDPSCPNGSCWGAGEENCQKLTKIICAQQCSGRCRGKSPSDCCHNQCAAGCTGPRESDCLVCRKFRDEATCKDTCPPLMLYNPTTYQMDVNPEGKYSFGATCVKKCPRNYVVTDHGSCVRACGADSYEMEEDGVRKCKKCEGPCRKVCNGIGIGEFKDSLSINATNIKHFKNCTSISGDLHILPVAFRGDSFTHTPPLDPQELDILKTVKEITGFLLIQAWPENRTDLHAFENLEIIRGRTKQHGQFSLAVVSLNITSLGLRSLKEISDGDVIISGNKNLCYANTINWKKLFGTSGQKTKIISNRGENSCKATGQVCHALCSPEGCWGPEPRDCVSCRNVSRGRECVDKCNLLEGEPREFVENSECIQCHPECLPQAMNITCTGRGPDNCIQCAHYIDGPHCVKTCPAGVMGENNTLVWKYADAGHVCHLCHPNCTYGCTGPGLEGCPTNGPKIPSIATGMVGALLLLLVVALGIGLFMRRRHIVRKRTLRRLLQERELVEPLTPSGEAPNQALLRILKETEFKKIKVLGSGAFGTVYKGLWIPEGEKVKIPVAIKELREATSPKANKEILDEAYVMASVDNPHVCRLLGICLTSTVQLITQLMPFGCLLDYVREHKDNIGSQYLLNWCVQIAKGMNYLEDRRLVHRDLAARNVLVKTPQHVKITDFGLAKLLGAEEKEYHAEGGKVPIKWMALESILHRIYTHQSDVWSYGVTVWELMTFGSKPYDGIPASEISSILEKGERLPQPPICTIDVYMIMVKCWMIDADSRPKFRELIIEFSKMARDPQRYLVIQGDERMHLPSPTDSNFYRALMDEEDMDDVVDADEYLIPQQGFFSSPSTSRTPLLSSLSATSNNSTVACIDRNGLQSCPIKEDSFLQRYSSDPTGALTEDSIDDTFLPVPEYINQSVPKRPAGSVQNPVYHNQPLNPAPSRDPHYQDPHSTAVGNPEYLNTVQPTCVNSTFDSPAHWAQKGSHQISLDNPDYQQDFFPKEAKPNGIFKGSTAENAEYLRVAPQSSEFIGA

[5] = molecular target: Epidermal growth factor receptor (Homo sapiens, UniProt P00533); assay: Inhibition of wild-type EGFR (unknown origin)
Epidermal growth factor receptor (Homo sapiens, UniProt P00533), sequence (P00533 whole entry): as the sequence (P00533 whole entry, looked up, stated change not applied) above

[6] = molecular target: Epidermal growth factor receptor (Homo sapiens, UniProt P00533, L858R/T790M); assay: Inhibition of EGFR T790M/L858R mutant (unknown origin)
Epidermal growth factor receptor (Homo sapiens, UniProt P00533, L858R/T790M), sequence (P00533 25-1210 T790M/L858R limits assumed): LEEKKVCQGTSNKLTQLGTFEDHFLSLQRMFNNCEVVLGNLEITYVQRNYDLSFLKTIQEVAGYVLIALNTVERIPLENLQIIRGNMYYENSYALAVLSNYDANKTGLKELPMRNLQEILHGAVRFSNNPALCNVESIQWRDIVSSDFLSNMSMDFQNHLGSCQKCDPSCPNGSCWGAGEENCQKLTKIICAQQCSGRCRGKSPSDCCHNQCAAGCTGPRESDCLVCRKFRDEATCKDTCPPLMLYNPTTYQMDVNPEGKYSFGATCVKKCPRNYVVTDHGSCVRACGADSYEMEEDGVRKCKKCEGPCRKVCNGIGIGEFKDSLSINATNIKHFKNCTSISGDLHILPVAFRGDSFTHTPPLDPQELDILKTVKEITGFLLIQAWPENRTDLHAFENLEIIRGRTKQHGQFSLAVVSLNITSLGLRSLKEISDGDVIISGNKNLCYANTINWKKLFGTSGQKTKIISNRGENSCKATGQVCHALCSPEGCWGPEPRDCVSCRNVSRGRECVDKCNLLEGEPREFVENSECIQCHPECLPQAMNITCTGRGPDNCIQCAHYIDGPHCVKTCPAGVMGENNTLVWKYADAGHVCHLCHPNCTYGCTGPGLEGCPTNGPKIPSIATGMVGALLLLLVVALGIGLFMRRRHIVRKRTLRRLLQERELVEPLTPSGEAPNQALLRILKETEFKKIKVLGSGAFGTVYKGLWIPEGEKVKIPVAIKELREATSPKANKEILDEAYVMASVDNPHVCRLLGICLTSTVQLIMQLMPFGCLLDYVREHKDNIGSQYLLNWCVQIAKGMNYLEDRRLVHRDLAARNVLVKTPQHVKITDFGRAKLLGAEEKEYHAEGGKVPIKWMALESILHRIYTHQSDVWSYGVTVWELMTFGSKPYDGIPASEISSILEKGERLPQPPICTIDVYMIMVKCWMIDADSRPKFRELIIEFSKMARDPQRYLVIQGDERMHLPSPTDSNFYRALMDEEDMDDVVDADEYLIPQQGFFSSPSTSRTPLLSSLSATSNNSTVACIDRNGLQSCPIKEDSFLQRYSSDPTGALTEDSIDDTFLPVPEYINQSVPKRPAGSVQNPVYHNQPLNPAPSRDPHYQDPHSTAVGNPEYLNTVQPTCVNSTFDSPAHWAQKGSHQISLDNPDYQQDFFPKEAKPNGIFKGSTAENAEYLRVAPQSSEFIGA

[7] = Cytotoxicity against VEGF-stimulated human HUVEC cells; assay type: toxicity, cell-based
[8] = Cytotoxicity against human HK-2 cells; assay type: toxicity, cell-based
[9] = Cytotoxicity against human HUVEC cells; assay type: toxicity, cell-based
[10] = Toxicity in nude mouse xenografted with human NCI-H1975 cells assessed as body weight loss at 25 mg/kg, po measured for 7 days; assay type: organism-based; details: in vivo, 168 h, time 7 day
[11] = Cytotoxicity against human HaCaT cells; assay type: toxicity, cell-based
[12] = Cytotoxicity against human L02 cells; assay type: toxicity, cell-based
[13] = tested on: BaF3; assay: Inhibition of cell growth in mouse BaF3 cells harboring EGFR del19/T790M/C797S mutant incubated for 72 hrs by fluorescence based assay; assay type: functional; details: BaF3, 72 h
[14] = tested on: BaF3; assay: Inhibition of cell proliferation in mouse BaF3 cells harboring EGFR L858R/T790M mutant incubated for 72 hrs by MTS assay; assay type: functional, cell-based; details: BaF3, 72 h
[15] = tested on: BaF3; assay: Inhibition of cell growth in mouse BaF3 cells harboring EGFR L858R/T790M/C797S mutant; assay type: functional, cell-based
[16] = tested on: BaF3; assay: Inhibition of cell growth in mouse BaF3 cells harboring EGFR del19/T790M/C797S mutant; assay type: functional, cell-based

IC50 [1] | IC50 [2] | Structure (SMILES) | other results
185 nM | 196 nM | O=S(=O)(Nc1ccccc1Nc1nc(Nc2cccc3[nH]ccc23)ncc1Cl)C1CC1 | 
177 nM | 183 nM | Cn1ccc2c(Nc3ncc(Br)c(Nc4ccccc4NS(=O)(=O)C4CC4)n3)cccc21 | 
4 nM | 4 nM | CN(C)C1CCN(c2ccc(Nc3ncc(Br)c(Nc4ccccc4NS(=O)(=O)C4CC4)n3)cc2)CC1 | 
1 nM | 2 nM | Cc1cc(Nc2ncc(Cl)c(Nc3ccccc3NS(=O)(=O)C3CC3)n2)ccc1N1CCC(N(C)C)CC1 | IC50 [3]: 0.37 nM; IC50 [4]: 0.29 nM; IC50 [5]: 68.7 nM; IC50 [6]: 12.6 nM
8 nM | 10 nM | CN1CCCN(c2ccc(Nc3ncc(Cl)c(Nc4ccccc4NS(=O)(=O)C4CC4)n3)cc2)CC1 | 
608 nM | 613 nM | CCS(=O)(=O)Nc1cc(Nc2ncc(Br)c(Nc3ccccc3NS(=O)(=O)C3CC3)n2)ccc1N1CCC(N(C)C)CC1 | 
 |  | C=CC(=O)Nc1cc(Nc2nccc(-c3cn(C)c4ccccc34)n2)c(OC)cc1N(C)CCN(C)C [OSIMERTINIB] | IC50 [7]: 2400 nM; IC50 [8]: 2140 nM; IC50 [9]: 2400 nM; Activity [10]: Toxic; IC50 [11]: 3360 nM
769 nM | 785 nM | CN(C)C1CCN(c2ccc(Nc3ncc(Br)c(Nc4ccccc4NS(=O)(=O)C4CC4)n3)cc2NS(C)(=O)=O)CC1 | 
79 nM | 82 nM | COc1cc(N2CCCN(C)CC2)ccc1Nc1ncc(Cl)c(Nc2ccccc2NS(=O)(=O)C2CC2)n1 | 
388 nM | 324 nM | CN(C)CCn1ccc2cccc(Nc3ncc(Br)c(Nc4ccccc4NS(=O)(=O)C4CC4)n3)c21 | 
271 nM | 257 nM | Cn1ccc2ccc(Nc3ncc(Br)c(Nc4ccccc4NS(=O)(=O)C4CC4)n3)cc21 | 
11 nM | 15 nM | CN(C)C1CCN(c2ccc(Nc3ncc(Cl)c(Nc4ccccc4NS(=O)(=O)C4CC4)n3)cc2)CC1 | 
199 nM | 211 nM | Cn1ccc2c(Nc3ncc(Cl)c(Nc4ccccc4NS(=O)(=O)C4CC4)n3)cccc21 | 
22 nM | 29 nM | Cc1cc(Nc2ncc(Cl)c(Nc3ccccc3NS(=O)(=O)C3CC3)n2)ccc1N(C)CCN(C)C | 
191 nM | 175 nM | O=S(=O)(Nc1ccccc1Nc1nc(Nc2cccc3[nH]cnc23)ncc1Cl)C1CC1 | 
101 nM | 98 nM | COc1cc(N2CCC(N(C)C)CC2)ccc1Nc1ncc(Cl)c(Nc2ccccc2NS(=O)(=O)C2CC2)n1 | 
15 nM | 17 nM | Cc1cc(Nc2ncc(Br)c(Nc3ccccc3NS(=O)(=O)C3CC3)n2)ccc1N(C)CCN(C)C | 
775 nM | 791 nM | CN1CCCN(c2ccc(Nc3ncc(Br)c(Nc4ccccc4NS(=O)(=O)C4CC4)n3)cc2NS(C)(=O)=O)CC1 | 
24 nM | 28 nM | CN(C)CCN(C)c1ccc(Nc2ncc(Cl)c(Nc3ccccc3NS(=O)(=O)C3CC3)n2)cc1 | 
65 nM | 71 nM | COc1cc(N2CCC(N3CCN(C)CC3)CC2)ccc1Nc1ncc(Cl)c(Nc2ccccc2P(C)(C)=O)n1 [BRIGATINIB] | IC50 [7]: 2400 nM; IC50 [8]: 2130 nM; IC50 [9]: 2170 nM; IC50 [12]: 1400 nM; IC50 [11]: 5020 nM
410 nM | 398 nM | CN(C)C1CCN(c2ccc(Nc3ncc(Br)c(Nc4ccccc4NS(=O)(=O)C4CC4)n3)cc2NS(=O)(=O)C2CC2)CC1 | 

IC50 [1] | IC50 [2] | Structure (SMILES) | other results
342 nM | 356 nM | CN(C)CCn1ccc2cccc(Nc3ncc(Cl)c(Nc4ccccc4NS(=O)(=O)C4CC4)n3)c21 | 
159 nM | 124 nM | O=S(=O)(Nc1ccccc1Nc1nc(Nc2cccc3[nH]ccc23)ncc1Br)C1CC1 | 
 |  | COc1cc(N2CCC(N3CCN(C)CC3)CC2)ccc1Nc1ncc(Cl)c(Nc2ccccc2NS(C)(=O)=O)n1 | IC50 [13]: 27 nM
1 nM | 1 nM | Cc1cc(Nc2ncc(Br)c(Nc3ccccc3NS(=O)(=O)C3CC3)n2)ccc1N1CCCN(C)CC1 | IC50 [3]: 0.28 nM; IC50 [4]: 0.3 nM; IC50 [5]: 61.3 nM; IC50 [6]: 10.2 nM
115 nM | 103 nM | Cn1cnc2ccc(Nc3ncc(Br)c(Nc4ccccc4NS(=O)(=O)C4CC4)n3)cc21 | 
712 nM | 723 nM | CN1CCCN(c2ccc(Nc3ncc(Cl)c(Nc4ccccc4NS(=O)(=O)C4CC4)n3)cc2NS(C)(=O)=O)CC1 | 
13 nM | 15 nM | CN(C)CCN(C)c1ccc(Nc2ncc(Br)c(Nc3ccccc3NS(=O)(=O)C3CC3)n2)cc1 | 
 |  | O=C(Nc1nccs1)C(c1cc(F)ccc1O)N1Cc2ccccc2C1=O (stereo unspecified) | IC50 [14]: ~10 nM
198 nM | 185 nM | Cn1cnc2ccc(Nc3ncc(Cl)c(Nc4ccccc4NS(=O)(=O)C4CC4)n3)cc21 | 
407 nM | 413 nM | CN1CCCN(c2ccc(Nc3ncc(Cl)c(Nc4ccccc4NS(=O)(=O)C4CC4)n3)cc2NS(=O)(=O)C2CC2)CC1 | 
351 nM | 377 nM | CN1CCCN(c2ccc(Nc3ncc(Br)c(Nc4ccccc4NS(=O)(=O)C4CC4)n3)cc2NS(=O)(=O)C2CC2)CC1 | 
4 nM | 3 nM | Cc1cc(Nc2ncc(Br)c(Nc3ccccc3NS(=O)(=O)C3CC3)n2)ccc1N1CCC(N(C)C)CC1 | 
274 nM | 284 nM | Cn1ccc2ccc(Nc3ncc(Cl)c(Nc4ccccc4NS(=O)(=O)C4CC4)n3)cc21 | 
8 nM | 4 nM | Cc1cc(Nc2ncc(Cl)c(Nc3ccccc3NS(=O)(=O)C3CC3)n2)ccc1N1CCCN(C)CC1 | 
65 nM | 67 nM | COc1cc(N2CCCN(C)CC2)ccc1Nc1ncc(Br)c(Nc2ccccc2NS(=O)(=O)C2CC2)n1 | 
635 nM | 631 nM | CCS(=O)(=O)Nc1cc(Nc2ncc(Br)c(Nc3ccccc3NS(=O)(=O)C3CC3)n2)ccc1N1CCCN(C)CC1 | 
 |  | CN1CCN(c2ccc(Nc3ncc(Cl)c(Nc4ccccc4P(C)(C)=O)n3)cc2Br)CC1 | IC50 [15]: 3.1 nM; IC50 [16]: 2.4 nM
795 nM | 844 nM | CN(C)C1CCN(c2ccc(Nc3ncc(Cl)c(Nc4ccccc4NS(=O)(=O)C4CC4)n3)cc2NS(C)(=O)=O)CC1 | 
682 nM | 698 nM | CCS(=O)(=O)Nc1cc(Nc2ncc(Cl)c(Nc3ccccc3NS(=O)(=O)C3CC3)n2)ccc1N1CCCN(C)CC1 | 
75 nM | 79 nM | COc1cc(N2CCC(N(C)C)CC2)ccc1Nc1ncc(Br)c(Nc2ccccc2NS(=O)(=O)C2CC2)n1 | 
